For 3 molecules, Kd results are on record in PMC6982127, “GTP Binding Is Necessary for the Activation of a Toxic Mutant Isoform of the Essential GTPase ObgE” (International Journal of Molecular Sciences, 2019).

Where two headings read alike, the source gives them in different places.

What all share (assay): isothermal titration calorimetry
What all share (assay type): binding

Test [1] deals with T1, ObgE (Escherichia coli, UniProt P42641, DEL153-156).
T1 construct: full-length ObgE, N-terminal His6 tag (pET28a-obgE), expressed in E. coli BL21(DE3) pLysS, Ni-NTA and size exclusion, made nucleotide-free by alkaline phosphatase
From the text: (§1) isothermal titration calorimetry on ObgE

In test [2] the target is T2, ObgE (Escherichia coli, UniProt P42641, E265K).
T2 construct: full-length ObgE, N-terminal His6 tag (pET28a-obgE), expressed in E. coli BL21(DE3) pLysS, Ni-NTA and size exclusion, made nucleotide-free by alkaline phosphatase
Description: as §1

Test [3] has as its target T3, ObgE (Escherichia coli, UniProt P42641, T174I).
T3 construct: full-length ObgE, N-terminal His6 tag (pET28a-obgE), expressed in E. coli BL21(DE3) pLysS, Ni-NTA and size exclusion, made nucleotide-free by alkaline phosphatase
Description: as §1

The target of test [4] is T4, ObgE (Escherichia coli, UniProt P42641, H234R).
T4 construct: full-length ObgE, N-terminal His6 tag (pET28a-obgE), expressed in E. coli BL21(DE3) pLysS, Ni-NTA and size exclusion, made nucleotide-free by alkaline phosphatase
Description: as §1

Setting [5] is: read-out: Equilibrium Dissociation Constants / KD(GDP).
[6] abbreviates: read-out: Equilibrium Dissociation Constants / KD(GTPγS).
The mark [7] stands for this setting: read-out: Equilibrium Dissociation Constants / KD(ppGpp).

T4 sequence (P42641 whole entry H234R): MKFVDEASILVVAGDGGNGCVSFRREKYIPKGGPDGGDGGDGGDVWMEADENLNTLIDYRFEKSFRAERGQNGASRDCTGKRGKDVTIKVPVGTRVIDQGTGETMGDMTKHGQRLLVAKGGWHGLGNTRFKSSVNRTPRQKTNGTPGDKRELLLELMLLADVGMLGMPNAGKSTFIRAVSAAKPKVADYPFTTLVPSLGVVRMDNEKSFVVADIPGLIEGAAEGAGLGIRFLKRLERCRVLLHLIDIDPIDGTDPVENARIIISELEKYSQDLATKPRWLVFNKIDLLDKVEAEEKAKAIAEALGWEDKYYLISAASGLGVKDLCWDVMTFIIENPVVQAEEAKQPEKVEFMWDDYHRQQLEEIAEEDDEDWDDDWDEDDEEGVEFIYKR
T3 sequence (P42641 whole entry T174I): as the sequence (P42641 whole entry H234R) above, with T174I, R234H counted along it
T1 sequence (P42641 with tags, fused parts or gaps DEL153-156): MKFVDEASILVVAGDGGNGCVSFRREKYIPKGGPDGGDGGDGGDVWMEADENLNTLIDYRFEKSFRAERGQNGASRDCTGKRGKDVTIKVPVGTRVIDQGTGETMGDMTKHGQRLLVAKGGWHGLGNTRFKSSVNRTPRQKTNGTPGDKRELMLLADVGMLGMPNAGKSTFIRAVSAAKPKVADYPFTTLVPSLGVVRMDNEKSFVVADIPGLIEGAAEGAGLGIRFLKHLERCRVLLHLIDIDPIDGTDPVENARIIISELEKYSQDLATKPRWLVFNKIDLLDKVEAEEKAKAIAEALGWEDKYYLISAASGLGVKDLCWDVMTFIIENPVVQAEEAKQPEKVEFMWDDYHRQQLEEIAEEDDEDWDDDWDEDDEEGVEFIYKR
T2 sequence (P42641 whole entry E265K): as the sequence (P42641 whole entry H234R) above, with R234H, E265K counted along it

For `Nc1nc2c(ncn2[C@@H]2O[C@H](COP(=O)(O)OP(=O)(O)O)[C@@H](O)[C@H]2O)c(=O)[nH]1` [GDP], the Kd at ObgE [1] (setting [5]) turned out to be 600 ± 50 nM; at ObgE [2] (setting [5]), 250 ± 30 nM; at ObgE [3] (setting [5]) it was 115 ± 2 µM; on ObgE [4] (setting [5]), 430 ± 50 nM.

On to `Nc1nc2c(ncn2[C@@H]2O[C@H](COP(=O)(O)OP(=O)(O)OP(O)(O)=S)[C@@H](O)[C@H]2O)c(=O)[nH]1` [GTPγS], for which the Kd on ObgE [1] (setting [6]) came out at 3400 ± 500 nM; at ObgE [2] (setting [6]), 5700 ± 800 nM; on ObgE [3] (setting [6]), 160 ± 11 µM; on ObgE [4] (setting [6]), 3700 ± 500 nM.

As to `Nc1nc2c(ncn2[C@@H]2O[C@H](COP(=O)(O)OP(=O)(O)O)[C@@H](OP(=O)(O)OP(=O)(O)O)[C@H]2O)c(=O)[nH]1` [ppGpp], the Kd at ObgE [1] (setting [7]) is 640 ± 60 nM; on ObgE [2] (setting [7]) it was 310 ± 30 nM; at ObgE [3] (setting [7]) it was 81 ± 3 µM; at ObgE [4] (setting [7]), 600 ± 60 nM.
